Source: patent publication US20090076044A1, “VEGFR INHIBITORS CONTAINING A ZINC BINDING MOIETY” (priority 2007, published 2009)

What was measured:
HDAC = HDAC fluorimetric assay kit (HeLa nuclear extract); format: biochemical
Method: (b) An In Vitro Assay which Determines the Ability of a Test Compound to Inhibit HDAC Enzymatic Activity.
HDAC inhibitors were screened using an HDAC fluorimetric assay kit (AK-500, Biomol, Plymouth Meeting, Pa.). Test compounds were dissolved in dimethylsulphoxide (DMSO) to give a 20 mM working stock concentration. Fluorescence was measured on a WALLAC Victor 2 plate reader and reported as relative fluorescence units (RFU). Data were plotted using GraphPad Prism (v4.0a) and IC50's calculated using a sigmoidal dose response curve fitting algorithm. Each assay was setup as follows: Defrosted all kit components and kept on ice until use. Diluted HeLa nuclear extract 1:29 in Assay Buffer (50 mM Tris/Cl, pH 8.0, 137 mM NaCl, 2.7 mM KCl, 1 mM MgCl2). Prepared dilutions of Trichostatin A (TSA, positive control) and tested compounds in assay buffer (5× of final concentration). Diluted Fluor de Lys™ Substrate in assay buffer to 100 uM (50 fold=2× final). Diluted Fluor de Lys™ developer concentrate 20-fold (e.g. 50 μl plus 950 μl Assay Buffer) in cold assay buffer. Second, diluted the 0.2 mM Trichostatin A 100-fold in the 1× Developer (e.g. 10 μl in 1 ml; final Trichostatin A concentration in the 1× Developer=2 μM; final concentration after addition to HDAC/Substrate reaction=1 μM). Added Assay buffer, diluted trichostatin A or test inhibitor to appropriate wells of the microtiter plate. Added diluted HeLa extract or other HDAC sample to all wells except for negative controls. Allowed diluted Fluor de Lys™ Substrate and the samples in the microtiter plate to equilibrate to assay temperature (e.g. 25 or 37° C. Initiated HDAC reactions by adding diluted substrate (25 μl) to each well and mixing thoroughly. Allowed HDAC reactions to proceed for 1 hour and then stopped them by addition of Fluor de Lys™ Developer (50 μl). Incubated plate at room temperature (25° C.) for 10-15 min. Read samples in a microtiter-plate reading fluorimeter capable of excitation at a wavelength in the range 350-380 nm and detection of emitted light in the range 440-460 nm.

human c-Met = target: T1, human c-Met (Homo sapiens, UniProt P08581); assay: c-Met radioisotope kinase assay; format: biochemical; settings: 1 μM ATP
T1 construct: recombinant human catalytic domain (amino acids 956-1390); His; host or cells: insect cells
T1 sequence (P08581 956-1390): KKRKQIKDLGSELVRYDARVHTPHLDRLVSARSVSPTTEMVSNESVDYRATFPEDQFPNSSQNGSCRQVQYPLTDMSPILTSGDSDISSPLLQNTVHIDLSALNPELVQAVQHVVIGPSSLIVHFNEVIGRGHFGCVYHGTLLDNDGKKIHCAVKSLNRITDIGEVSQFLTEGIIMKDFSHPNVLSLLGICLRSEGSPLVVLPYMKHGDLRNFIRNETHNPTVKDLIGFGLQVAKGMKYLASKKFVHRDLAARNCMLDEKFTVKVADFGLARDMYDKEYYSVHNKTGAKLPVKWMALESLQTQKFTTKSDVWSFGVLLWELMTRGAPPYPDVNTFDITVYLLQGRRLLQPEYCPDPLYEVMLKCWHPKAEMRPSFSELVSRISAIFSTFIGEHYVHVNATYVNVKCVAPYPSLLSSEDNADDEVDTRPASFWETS
Method: (c) An In Vitro Assay which Determines the Ability of a Test Compound to Inhibit c-MET Enzymatic Activity.
For c-Met assay, p33 ATP tracers were incubated with purified recombinant c-Met kinase to monitor the enzyme activity. C-Met (Accession number: GenBank NP_000236.2) is characterized as follows: recombinant human catalytic domain (amino acids 956-1390) with histidine-tagged, expressed in insect cells. Purity≧90% by SDS-PAGE and Coomassie blue staining. MW=53.7 kDa. Specific Activity of 373 nmole of phosphate transferred to myelin basic protein (MBP) per minute per mg of total protein at 30° C. Activity determined at a final protein concentration of 2 μg/mL. Enzyme at 0.41 mg/ml in 20 mM Tris (pH 7.5), 100 mM NaCl, 0.5 mM EDTA, 0.05% Triton X-100, 2 mM DTT, 50% Glycerol. In this assay, reactions were carried out in the presence of 10 nM c-Met kinase and 5 uM myelin basic protein. The reaction was carried out at 30° C. for 120 minutes in a final assay condition contained 20 mM HEPES, pH 7.5, 10 mM MgCl2, 1 mM EGTA, 0.02% Brij 35, 0.02 mg/ml BSA, 0.1 mM Na3VO4, 2 mM DTT and 1 μM ATP. An equal volume of 25% TCA was added to stop the reaction and precipitate the labeled proteins. Precipitated proteins were trapped onto glass fiber B filterplates and excess unlabeled p33 ATP was washed off. The plates were allowed to air-dry prior to the addition of 30 uL/well of Packard Microscint 20. The amount of incorporated isotope was measured using a Perkin Elmer TopCount plate reader. Different concentrations of compounds were added to reaction to assess the activity of compounds to inhibit c-Met kinase. IC50 was calculated using Prism software with sigmoidal dose-response curve fitting.

| IC50 (HDAC) [µM] | IC50 (human c-Met) [µM] | Structure (SMILES) |
| --- | --- | --- |
| < 0.1 | – | COc1cc2ncnc(Nc3ccc4occc4c3)c2cc1OCCCCCCC(=O)NO [Compound 2, 7-(4-(benzofuran-5-ylamino)-7-methoxyquinazolin-6-yloxy)-N-hydroxyheptanamide] |
| 0.1 to 1 | 1 to 10 | COc1cc2c(Oc3ccc4[nH]c(C)cc4c3F)ncnc2cc1OCCCCCC(=O)NO [Compound 10, 6-(4-(4-fluoro-2-methyl-1H-indol-5-yloxy)-6-methoxyquinazolin-7-yloxy)-N-hydroxyhexanamide] |
| 0.1 to 1 | 1 to 10 | COc1cc2c(Oc3ccc4[nH]c(C)cc4c3F)ncnc2cc1OCCCCCCC(=O)NO [Compound 11, 7-(4-(4-fluoro-2-methyl-1H-indol-5-yloxy)-6-methoxyquinazolin-7-yloxy)-N-hydroxyheptanamide] |
| < 0.1 | – | COc1cc2c(Nc3ccc4[nH]c(C)cc4c3F)ncnc2cc1OCCCCCC(=O)NO [Compound 13, 6-(4-(4-fluoro-2-methyl-1H-indol-5-ylamino)-6-methoxyquinazolin-7-yloxy)-N-hydroxyhexanamide] |
| < 0.1 | 1 to 10 | COc1cc2c(Nc3ccc4[nH]c(C)cc4c3F)ncnc2cc1OCCCCCCC(=O)NO [Compound 14, 7-(4-(4-fluoro-2-methyl-1H-indol-5-ylamino)-6-methoxy-quinazolin-7-yloxy)-N-hydroxyheptanamide] |
| 0.1 to 1 | 0.1 to 1 | Cc1cc2c(F)c(Oc3ncnc4cc(OCCCN5CCCC5)c(OCCCCCC(=O)NO)cc34)ccc2[nH]1 [Compound 16, 6-(4-(4-fluoro-2-methyl-1H-indol-5-yloxy)-7-(3-(pyrrolidin-1-yl)propoxy)quinazolin-6-yloxy)-N-hydroxyhexanamide] |
| < 0.1 | < 0.1 | Cc1cc2c(F)c(Oc3ncnc4cc(OCCCN5CCCC5)c(OCCCCCCC(=O)NO)cc34)ccc2[nH]1 [Compound 17] |
| 0.1 to 1 | – | Cc1cc2c(F)c(Nc3ncnc4cc(OCCCN5CCCC5)c(OCCCCC(=O)NO)cc34)ccc2[nH]1 [Compound 18, 5-(4-(4-fluoro-2-methyl-1H-indol-5-ylamino)-7-(3-(pyrrolidin-1-yl)propoxy)quinazolin-6-yloxy)-N-hydroxypentanamide] |
| 0.1 to 1 | – | Cc1cc2c(F)c(Nc3ncnc4cc(OCCCN5CCCC5)c(OCCCCCC(=O)NO)cc34)ccc2[nH]1 [Compound 19, 6-(4-(4-Fluoro-2-methyl-1H-indol-5-ylamino)-7-(3-(pyrrolidin-1-yl)propoxy)quinazolin-6-yloxy)-N-hydroxyhexanamide] |
| – | 1 to 10 | Cc1cc2c(F)c(Nc3ncnc4cc(OCCCN5CCCC5)c(OCCCCCCC(=O)NO)cc34)ccc2[nH]1 [Compound 20, 7-(4-(4-Fluoro-2-methyl-1H-indol-5-ylamino)-7-(3-(pyrrolidin-1-yl)propoxy)quinazolin-6-yloxy)-N-hydroxyheptanamide] |
